How the values were obtained:
Experiment in all cases: relative viability (nuclei count vs DMSO), 5 days (fraction); higher = more cells survive
TGX 221 + Phenformin = compound: CC1=CN2C(=O)C=C(N=C2C(=C1)C(C)NC3=CC=CC=C3)N4CCOCC4 [TGX 221] + N=C(N)NC(=N)NCCc1ccccc1 [Phenformin] (partner 250 µM)
Method in brief: (§1)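 Relative viability was taken as the ratio of nuclei in treated wells to nuclei in vehicle wells. Lung cancer cell lines in 1536-well plates received compounds by pin tool one day after seeding, either one drug alone or a fixed anchor-drug dose plus five library-drug doses (not always all listed) in √10 steps. Nuclei were counted on 4× images after 5 days of treatment, and values are medians of duplicate plates.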

[1] = compound: C1=CC=C(C(=C1)C2=CC=C(C=C2)C3=CSC4=C3C(=C(C(=O)N4)C#N)O)O + CC(=O)c1c(C)c2cnc(Nc3ccc(N4CCNCC4)cn3)nc2n(C2CCCC2)c1=O [Palbociclib] (partner 0.5 µM)
Method in brief: as §1

[2] = compound: O=C(CCCCCCNC(=O)c1cnc(N(c2ccccc2)c2ccccc2)nc1)NO [Ricolinostat] + N=C(N)NC(=N)NCCc1ccccc1 [Phenformin] (partner 250 µM)
Method in brief: as §1

TGX 221 + Olaparib = compound: CC1=CN2C(=O)C=C(N=C2C(=C1)C(C)NC3=CC=CC=C3)N4CCOCC4 [TGX 221] + O=C(c1cc(Cc2n[nH]c(=O)c3ccccc23)ccc1F)N1CCN(C(=O)C2CC2)CC1 [Olaparib] (partner 8 µM)
Method in brief: as §1

Row | Cell Line | relative viability (TGX 221 + Phenformin; first compound 0.08 µM) | relative viability (TGX 221 + Phenformin; first compound 0.253 µM) | relative viability (TGX 221 + Phenformin; first compound 0.8 µM) | relative viability (TGX 221 + Phenformin; first compound 2.53 µM) | relative viability (TGX 221 + Phenformin; first compound 8 µM) | relative viability ([1]; first compound 0.08 µM) | relative viability ([1]; first compound 0.253 µM) | relative viability ([1]; first compound 0.8 µM) | relative viability ([1]; first compound 2.53 µM) | relative viability ([1]; first compound 8 µM) | relative viability ([2]; first compound 0.08 µM) | relative viability ([2]; first compound 0.253 µM) | relative viability ([2]; first compound 0.8 µM) | relative viability ([2]; first compound 2.53 µM) | relative viability (TGX 221 + Olaparib; first compound 0.08 µM) | relative viability (TGX 221 + Olaparib; first compound 0.253 µM) | relative viability (TGX 221 + Olaparib; first compound 0.8 µM) | relative viability (TGX 221 + Olaparib; first compound 2.53 µM) | relative viability (TGX 221 + Olaparib; first compound 8 µM)
1 | NCI-H2170 | 0.421 | 0.413 | 0.464 | 0.431 | 0.362 | 0.349 | 0.407 | 0.404 | 0.434 | 0.329 | 0.394 | 0.426 | 0.407 | 0.373 | 0.625 | 0.522 | 0.625 | 0.526 | 0.608
2 | NCI-H2228 | 0.377 | 0.317 | 0.256 | 0.312 | 0.258 | 0.687 | 0.6 | 0.747 | 0.759 | 0.6 | 0.255 | 0.341 | 0.355 | 0.342 | 0.557 | 0.529 | 0.471 | 0.532 | 0.541
3 | NCI-H2342 | 0.445 | 0.57 | 0.583 | 0.559 | 0.601 | 0.538 | 0.513 | 0.538 | 0.488 | 0.529 | 0.475 | 0.578 | 0.614 | 0.713 | 0.424 | 0.417 | 0.404 | 0.466 | 0.463
4 | NCI-H2347 | 0.427 | 0.385 | 0.389 | 0.234 | 0.213 | 0.46 | 0.429 | 0.361 | 0.442 | 0.423 | 0.295 | 0.32 | 0.337 | 0.302 | 0.592 | 0.563 | 0.521 | 0.528 | 0.457

Source: the supplement of paper PMC10307832
